Measured values taken from US8753570B2, “Structure, synthesis, and applications for oligo phenylene ethynylenes” (STC.UNM, priority 2008, dated 2014).

Columns and labels:
[1] = Solubility in water and polar organic solvents; format: physicochemical; conditions: water and polar organic solvents such as methanol
Source text: (§1) While the synthetic steps are all straight-forward, those involving conversion of the diiodobenzene to 4-(4-iodophenyl)-2-methyl-3-butyn-2-ol occur with lower yields and the desired products must be separated from structurally similar byproducts. The alkylamino groups were attached in an early step but converted to the quaternary ammonium derivatives as the last step of the synthesis. The intermediates and final products were characterized by mass spectrometry and proton and carbon NMR. […]

[2] = Nanosecond transient absorption spectroscopy (triplet state lifetime); format: physicochemical; conditions: aqueous solution
Source text: (§2) The spectra are concentration independent in the micromolar concentration range and there is a small red shift in the series: S-OPE-1 (H), N-OPE-1=S-OPE-1 (COO—), S-OPE-1 (COOEt). […] Furthermore, we have also synthesized and carried out studies of S-OPE-1 (x) where x=NH2, COCH3, both of these compounds show similar absorption spectra to that of S-OPE-1 (COOEt). The fluorescence of all four compounds shown in Table 2 is strong in methanol and there is little variation in fluorescence efficiency among the different substituted derivatives. However there is a significant variation in the fluorescence efficiencies in aqueous solution ranging from 0.02 for S-OPE-1 (COOEt) to 0.80 for S-OPE-1 (H). […] Clearly the ester groups in N-OPE-1 and S-OPE-1 (COOEt) must play a major role in a solvent-dependent process which deactivates the excited singlet of the oligomers in water. Nanosecond transient absorption spectroscopy was carried out on the OPEs in order to monitor the triplet states. […] The transient lifetimes and spectra are consistent with a triplet state assignment. The 1max of triplet-triplet absorption shifts from 518 nm to 569 nm following the extent of conjugation: S-OPE1-H (518 nm), N-OPE-1 (533 nm), S-OPE-1 (COO—) (557 nm), then S-OPE-1 (COOEt) (569 nm). The apparent triplet yields decrease in the order of S-OPE-1 (H)>S-OPE-1 (COO—)>>N-OPE-1>>S-OPE-1 (COOEt). The triplet lifetimes follow a similar trend as the triplet yield (Table 2).

[3] = Self-assembly / complex formation on carboxymethylcellulose (absorption, fluorescence); format: binding; conditions: two-state model, dimer assumed; estimated from absorbances
Source text: N-OPE:CMC complexes can be formed by adding small aliquots of CMC to aqueous solutions containing the N-OPE compound. […] [N-OPE-1]=1.5×10^−5M. […] [N-OPE-2]=1.5×10^−5 and [CMC]=0-4.2×10^−5M. Both excitation and emission slits are 2.5 nm. Excitation wavelength for N-OPE-1 is 355 nm and for N-OPE-2 is 375 nm. For both N-OPEs there are several isosbestic points in the absorption spectra as the two bands in the absorption for water alone are replaced by a spectrum of the N-OPE:CMC having two bands at longer wavelength. For both N-OPEs the fluorescence also undergoes a red shift and increase in intensity as aliquots of CMC are added, finally leveling off at moderate concentrations (greater than 1 mM) of CMC. […]
Binding constants (assuming that an N-OPE dimer is formed in each case) can be estimated from a determination of the individual absorbances of the two species following a treatment for a similar two-state system developed by Pasternack and co-workers. […]
Self-assembly is not limited solely to the non-symmetrical N-OPE compounds. […] The changes that occur for S-OPE-1 (H), N-OPE-1 and S-OPE-1 (COOEt) (sharp, red shifted absorption spectra, isosbestic points maintained throughout the CMC addition and red-shifted fluorescence) are consistent with an extension of effective conjugation for the oligomers on the carboxylate decorated surface of the CMC.

[4] = Fluorescence quantum yields and fluorescence lifetimes in water and methanol; format: physicochemical; conditions: for φf in CH3OH / φf in H2O / τ (ns): Table 2; for τ (ns): fluorescence lifetime; for fluorescence quantum efficiency: in water, quinine sulfate standard; for Φf / τf (ns): Table 1
Source text: as §1
The absorption and fluorescence in methanol occur at very similar wavelengths. In both solvents there is no concentration dependence of the spectra in the micromolar range and it seems likely that in both solvents the N-OPE are monomeric. […] Fluorescent lifetimes in water are correspondingly shorter than in methanol.
Three symmetrical molecules, S-OPE-1 (H), S-OPE-1 (COOEt) and S-OPE-1 (COO—) show similar two-banded absorption spectra in water and methanol.
as §2

[5] = tested on: Pseudomonas aeruginosa Strain PAO1; assay: Dark and light activated biocidal activity; format: cell-based; conditions: for biocidal activity: in solution and attached to surfaces; for light activated biocidal activity: short term irradiation with near ultraviolet light
Source text: The OPEs described herein have been synthesized and studied as dark and light activated biocides towards a Gram negative bacterium, Pseudomonas aeruginosa Strain PAO1. […] N-OPE-1 has been attached to surfaces by covalent linkage. This has been accomplished for both micron sized glass beads and glass slides.

[6] = exposed to bacteria in the dark, up to one hour
[7] = suspensions of Pseudomonas, much slower than light-activated

| SMILES | τTA (μs) [2] | φf in CH3OH [4] | φf in H2O [4] | τ (ns) ([4]; column after φf in CH3OH) | τ (ns) ([4]; column after φf in H2O) | dark biocidal activity [5, 6] | biocidal activity [5] | light activated biocidal activity [5] | further results |
| --- | --- | --- | --- | --- | --- | --- | --- | --- | --- |
| CCOC(=O)c1ccc(C#Cc2cc(OCCC[N+](C)(C)C)c(C#Cc3ccc(C#Cc4cc(OCCC[N+](C)(C)C)c(C#Cc5ccccc5)cc4OCCC[N+](C)(C)C)cc3)cc2OCCC[N+](C)(C)C)cc1.[Cl-].[Cl-].[Cl-].[Cl-] [N-OPE-2] |  |  |  |  |  | active against bacteria both in the dark and in the light | active biocides both in solution and attached to surfaces | active against bacteria both in the dark and in the light | solubility [1]: readily soluble in water and polar organic solvents such as methanol; fluorescence quantum efficiency [4]: over 1%; Φf ([4]; solvent H2O): 0.012; τf (ns) ([4]; solvent H2O): 0.37 ns; Φf ([4]; solvent Methanol): 0.68; τf (ns) ([4]; solvent Methanol): 0.92 ns |
| CCOC(=O)c1ccc(C#Cc2cc(OCCC[N+](C)(C)C)c(C#Cc3ccc(C#Cc4cc(OCCC[N+](C)(C)C)c(C#Cc5ccc(C#Cc6cc(OCCC[N+](C)(C)C)c(C#Cc7ccccc7)cc6OCCC[N+](C)(C)C)cc5)cc4OCCC[N+](C)(C)C)cc3)cc2OCCC[N+](C)(C)C)cc1.[Cl-].[Cl-].[Cl-].[Cl-].[Cl-].[Cl-] [N-OPE-3] |  |  |  |  |  | active against bacteria both in the dark and in the light | active biocides both in solution and attached to surfaces | active against bacteria both in the dark and in the light |  |
| C[N+](C)(C)CCCOc1cc(C#Cc2ccc(C#Cc3cc(OCCC[N+](C)(C)C)c(C#Cc4ccccc4)cc3OCCC[N+](C)(C)C)cc2)c(OCCC[N+](C)(C)C)cc1C#Cc1ccccc1.[Cl-].[Cl-].[Cl-].[Cl-] [S-OPE-2 (x=H)] |  |  |  |  |  |  |  |  | light-activated biocidal activity (rank) ([5]; suspensions of Pseudomonas): S-OPE-1 (x=H)<S-OPE-2 (x=H); dark biocidal activity [5, 7]: observed |
| C[N+](C)(C)CCCOc1cc(C#Cc2ccc(C#Cc3cc(OCCC[N+](C)(C)C)c(C#Cc4ccc(C#Cc5cc(OCCC[N+](C)(C)C)c(C#Cc6ccccc6)cc5OCCC[N+](C)(C)C)cc4)cc3OCCC[N+](C)(C)C)cc2)c(OCCC[N+](C)(C)C)cc1C#Cc1ccccc1.[Cl-].[Cl-].[Cl-].[Cl-].[Cl-].[Cl-] [S-OPE-3 (x=H)] |  |  |  |  |  |  |  |  | dark biocidal activity [5, 7]: observed |

More lines, main results first:

| τTA (μs) [2] | φf in CH3OH [4] | φf in H2O [4] | τ (ns) ([4]; column after φf in CH3OH) | τ (ns) ([4]; column after φf in H2O) | SMILES | dark biocidal activity [5, 6] | biocidal activity [5] | light activated biocidal activity [5] | further results |
| --- | --- | --- | --- | --- | --- | --- | --- | --- | --- |
| 107 μs | 0.68 | 0.15 | 1.6 ns | 1.5 ns | CCOC(=O)c1ccc(C#Cc2cc(OCCC[N+](C)(C)C)c(C#Cc3ccccc3)cc2OCCC[N+](C)(C)C)cc1.[Cl-].[Cl-] [N-OPE-1] | relatively inactive | active biocides both in solution and attached to surfaces | active as a biocide | solubility [1]: readily soluble in water and polar organic solvents such as methanol; binding constant K, CMC:(N-OPE)2 [3]: less accurate and slightly lower; fluorescence quantum efficiency [4]: ~15%; Φf ([4]; solvent H2O): 0.147; τf (ns) ([4]; solvent H2O): 0.78 ns; Φf ([4]; solvent Methanol): 0.68; τf (ns) ([4]; solvent Methanol): 1.57 ns |
| 77 μs | 0.75 | 0.023 | 1.4 ns | 1.0 ns | CCOC(=O)c1ccc(C#Cc2cc(OCCC[N+](C)(C)C)c(C#Cc3ccc(C(=O)OCC)cc3)cc2OCCC[N+](C)(C)C)cc1.[Cl-].[Cl-] [S-OPE-1 (COOEt)] |  |  |  | fluorescence efficiency in aqueous solution [4]: 0.02 |
| 136 μs | 0.74 | 0.70 | 1.3 ns | 1.5 ns | C[N+](C)(C)CCCOc1cc(C#Cc2ccc(C(=O)[O-])cc2)c(OCCC[N+](C)(C)C)cc1C#Cc1ccc(C(=O)[O-])cc1 [S-OPE-1 (COO—)] |  |  |  |  |
| 216 μs | 0.82 | 0.80 | 1.4 ns | 1.6 ns | C[N+](C)(C)CCCOc1cc(C#Cc2ccccc2)c(OCCC[N+](C)(C)C)cc1C#Cc1ccccc1.[Cl-].[Cl-] [S-OPE-1 (H)] |  |  |  | fluorescence efficiency in aqueous solution [4]: 0.80; light-activated biocidal activity (rank) ([5]; suspensions of Pseudomonas): S-OPE-1 (x=H)<S-OPE-2 (x=H) |
